Source: patent publication US10183027B2, “Lanthanide toolbox for multi-modal, non-invasive tumor specific theranostic prodrugs” (priority 2016, dated 2019)

Legend:
[1] = test system: HeLa; test: Dark cytotoxicity of Eu(III) complexes on HeLa cells; type: cell-based
[2] = test system: Plasmid DNA; test: Agarose gel electrophoresis of plasmid DNA after UVA irradiation (PtEuL); type: biochemical; details: 20 μM, UVA light dose 50 J m^−2
Excerpt: The DNA gel images were obtained using GelRed Nucleic Acid Stain (BIOTIUM).
(§1) Direct binding of PtEuL with DNA in dark were studied by circular dichroism (CD). […] The interaction of photo-activated PtEuL with DNA was examined by agarose gel electrophoresis (FIG. 29B). After UVA irradiation with PtEuL, conversion of the supercoiled conformer of the plasmid DNA to its open-circular conformer, which indicates DNA nicking (single strand break) and linear conformer, which indicates double strand break, is clearly seen.

[3] = test system: Plasmid DNA; test: Agarose gel electrophoresis of plasmid DNA with RuEuL / EuL; type: biochemical; details: 20 μM
Protocol: Furthermore, the interaction of photo-activated RuEuL with DNA was examined by agarose gel electrophoresis (FIG. 24). Plasmid DNA (22.5 μg/mL in Tris/EDTA (TE) buffer) was incubated with the compounds (20 μM), irradiated by 488 nm light (dose 50 J m^−2) or not (control) and then subjected to 1% agarose gel electrophoresis. The separated DNA was stained with GelRed Nucleic Acid Stain (BIOTIUM) and imaged using Tanon 1600 Gel Imaging System (Tanon Science & Technology Co., Ltd).

[4] = test system: HeLa cells; test: Dark and photo cytotoxicity of RuEuL against HeLa cells; type: cell-based, human
Protocol: To determine the potential of RuEuL as a photo-controlled prodrug cell cytotoxicity studies were performed on human cervical cancer (HeLa) cells, and EuL as control (FIGS. 25A and 25B). Cells were incubated 6 hours in the dark before irradiation (488 nm, 1 J); dark controls were run in parallel.

[5] = test system: HeLa cells; test: Two-photon confocal microscopy of HeLa cells with PtEuL / EuL; type: cell-based
Protocol: Near infrared (NIR) excitation has increasingly been used in live cell imaging and photodynamic or photoactivated chemo-therapy because NIR photon (λ=650-900 nm) can penetrate deeper into tissues with pinpoint accuracy and little collateral photodamage. The two-photon photophysical properties of some antenna ligands of lanthanide complexes have been studied previously. The two-photon induced cytotoxicity of the EuL and PtEuL complexes towards HeLa cells after incubation at different dose concentrations (PtEuL: 0, 1, 2, 5, 10 μM; EuL: 0, 10, 20, 50, 100 μM) for 24 hours was studied using two-photon (λex=730 nm) confocal microscopy (FIGS. 30A-30C and FIGS. 33A and 33B). […] This is probably due to the lower cellular uptake rate of EuL because we no Eu emission was observed from the HeLa cells even after incubation in 100 μM of EuL, ceteris paribus.

[6] = test system: A549; test: Dark cytotoxicity of Eu(III) complexes on A549 cells; type: cell-based
[7] = test system: Plasmid DNA; test: Circular dichroism of plasmid DNA with PtEuL in dark; type: binding; details: 50 μM, 37° C., 12 h
Excerpt: as §1

[8] = Photo-induced dissociation of the cisplatin unit in tris buffer monitored by emission; type: physicochemical
Protocol: One of the key issues is the photodissociation level of the Pt moiety from the compounds described herein. The triplet states of the chromophores before and after photo-release the drug or upon binding with αvβ3 isoform were measured. Based on the synthetic protocols described herein, La (lanthanum) and Gd (gadolinium) analogs can be synthesized to measure the triplet states of the chromophores as well. The measurements of the triplet states of these chromophores phosphorescence and their phosphorescence lifetime was undertaken at low temperature (77K). The photodissociation kinetics of PtEuL were investigated by monitoring the emission spectrum with different irradiation times of UVA/NIR (light dosage=4 J cm^−2). The plot of responsive and initial emission intensity at 615 nm (^5D0→^7F2) vs time will be fitted in the exponential growth and decay equation to obtain the pseudo-first order rate constant.
The linear light induced dissociation of PtGdL in tris buffer (20 mM Tris base, 50 mM NaCl, pH 7.4) was monitored by determination of the emission intensity of solution of PtGdL in tris buffer with different light dosage of 365 nm UV light. In general, 3 mL of the solution of PtGdL (3 μM in tris buffer) in a 3.5 mL quartz cuvette was irradiated with a 365 nm UV lamp (5 mW) with stirring. The emission spectra of the solution were recorded at different time points (0, 1, 3, 5, 7, 10, 15, 20, 30, 45, 60, 75 and 90 min).
(Ln=Eu or Gd). The solution-state electronic adsorption and emission spectra of all the complexes and the ligand were recorded at 298 K (FIGS. 28A-28D). The EuL complex is the product of PtEuL after photo-dissociation and was used to monitor the photo-dissociation of [Pt—(NH3)2Cl]^+ from PtEuL. […] The photo-dissociation of PtEuL (3 μM in Tris-buffer, pH=7.4, 50 mM NaCl) was monitored by the variation of the Eu emission (λem=615 nm, ^5D0→^7F2) with the irradiation time. […] The pseudo-first order rate constant k was determined to be 0.53 min^−1 under these experimental conditions (FIG. 28D).

[9] = test system: HeLa cells; test: Confocal microscopy of light-induced cytotoxicity of RuEuL; type: cell-based, human; details: 50 μM RuEuL or 10 μM PtEuL, 6 hours, 7 mW
Excerpt: The light-induced cytotoxicity of RuEuL towards HeLa cells was also investigated by confocal microscopy (FIG. 26B) with the PtEuL complex tested under identical conditions for comparison. […] In cell culture studies, red Eu(III) emission from RuEuL was observed after 15-min irradiation. (FIG. 26A) The emission intensity increased with longer irradiation time because more excitation energy induced the dissociation of more Ru(II) moieties from the parent molecules, and the resulting EuL units generated stronger light emission. […] PtEuL is photo-activated upon ultraviolet A irradiation (λ=365 nm). However, UVA irradiation could cause severe adverse effects on human cells.

[10] = mean ± SD of three independent experiments

| SMILES | toxicity towards HeLa ([1]; identical conditions) | DNA photocleavage activity [2] | interaction with DNA [3] | toxicity towards HeLa cells ([4]; control) | red emission from treated cells ([5]; identical conditions, up to 100 μM) | toxicity towards A549 ([6]; identical conditions) | direct binding with DNA in dark (CD) [7] | IC50 [1, 10] [µM] | pseudo-first order rate constant k (I/I0 @ 615 nm vs. time) ([8]; 3 μM in Tris-buffer pH 7.4, 50 mM NaCl, UVA 365 nm) [min⁻¹] | pseudo-first order rate constant k for the dissociation of the cisplatin unit ([8]; tris buffer pH 7.4, UV 365 nm, 5 mW) [min⁻¹] | IC50 ([4]; HeLa, 6 hours in the dark then irradiation (488 nm, 1 J), read-out: light IC50) [µM] | concentration at which red emission was observed in the cell ([5]; 24 hours incubation, 30 min intermittent two-photon excitation 730 nm) [µM] | IC50 [6, 10] [µM] | cell damage and red emission on 488 nm laser irradiation [9] |
| --- | --- | --- | --- | --- | --- | --- | --- | --- | --- | --- | --- | --- | --- | --- |
| O.O=C([O-])CN1CCN(CC(=O)[O-])CCN(Cc2cc(C#Cc3ccc(NC(=O)c4ccncc4)cc3)ccn2)CCN(CC(=O)[O-])CC1.[Eu+3] [EuL] | no toxicity | not at all | does not interact with DNA | almost no toxicity | no red emission was detected | no toxicity |  |  |  |  |  |  |  |  |
| O.O=[N+]([O-])[O-].[Eu+3].[NH3+][Pt-2]([NH3+])([Cl])[n+]1ccc(C(=O)Nc2ccc(C#Cc3ccnc(CN4CCN(CC(=O)[O-])CCN(CC(=O)[O-])CCN(CC(=O)[O-])CC4)c3)cc2)cc1 [PtEuL] |  | strong DNA photocleavage activity |  |  |  |  | can directly bind to DNA and unwind its helix | 22.5 ± 0.5 | 0.53 | 0.053 | 22.9 | > 2 | 49.5 ± 0.1 | no red emission or cell death |
